Laboratory results from patent US10004785B2, “LKKTET and/or LKKTNT peptide compositions which are lyophilized or in a form capable of being lyophilized” (RegeneRX Biopharmaceuticals, Inc., priority 2005, dated 2018).

Experiments:
[1] = tested on: Human corneal epithelial cells; test: colorimetric annexin-based cell death assay (apoptosis); settings: 1 mcg/ml Tβ4, 3 and 24 hour time points
Method: (§1) Human corneal epithelial cells at approximately 80% confluence were treated with 0%, 0.001%, 0.01%, or 0.1% BAK for 15 minutes. After 3 and 24 hours of recovery in culture medium, cell proliferation was measured using a colorimetric BrdU incorporation assay. Apoptosis was measured using a colorimetric annexin-based cell death assay. […] To further assess the ability of Tb4 to prevent apoptosis, corneal epithelial cells were treated with 0.01% BAK±Tβ4 over a 5 day time course.

[2] = tested on: Human corneal epithelial cells; test: colorimetric BrdU incorporation assay (cell proliferation); format: cell-based; settings: 1 mcg/ml Tβ4, 3 and 24 hour time points
Method: as §1

Question: Which “apoptosis of BAK-treated corneal epithelial cells” value [1] does the source give for “Thymosin beta 4 (SDKPDMAEIEKFDKSKLKKTETQEKNPLPSKETIEQEKQAGES; Thymosin beta-4; UniProt P62328 2-44, looked up) [Tβ4, a 43 amino acid, 4.9 kDa ubiquitous polypeptide originally isolated from the thymus]” here?
Answer: Its value is “not inhibited”.

Question: And the “cell proliferation of BAK-treated corneal epithelial cells” value [2]?
Answer: The value was “not promoted”.
